# Experimental data taken from patent publication US11214803B2, “Modulators of YAP1 expression” (Ionis Pharmaceuticals, Inc., priority 2019, dated 2022).
# Values joined by “and” are separate entries in the source; they are usually repeats but may differ in a detail not shown here. Equal values may be shown once. Strand notation (5' to 3'): a small letter for the sugar, then the base; units joined by * are phosphorothioate-linked, units joined directly phosphodiester-linked; [ ] holds rarer units or linkages, { } end groups; capitals alone tell only the bases. k = constrained ethyl (cEt); [5mC] = 5-methylcytosine; d = 2'-deoxy (DNA)
# How the values were obtained:
# [1] = Tolerability in Balb/c mice, plasma chemistry markers (Example 12); type: in vivo; conditions: 50 mg/kg subcutaneously twice a week for four weeks
# Procedure: (§1) Balb/c mice were treated with modified oligonucleotides selected from studies described above and evaluated for changes in the levels of various plasma chemistry markers.
# (§2) Groups of male Balb/c mice at 6-7 weeks of age (obtained from Taconic) were injected subcutaneously twice a week for four weeks (for a total of 8 treatments) with 50 mg/kg of modified oligonucleotides. One group of male Balb/c mice was injected with PBS. Mice were euthanized on day 26 post start of treatment (24 hours following the final administration).
# Yap1 mRNA [2] = assay: Dose-dependent inhibition of human Yap1 in A-431 cells (Example 6, 5,000 cells per well, RTS4814); type: cell-based; conditions: Table 53, A-431 cells
# In short: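 A-431 cells (5,000/well) took up oligonucleotides by free uptake at various doses for about 48 h. Yap1 mRNA was measured by RT-PCR (RTS4814), normalised to RIBOGREEN total RNA and expressed as % untreated control; IC50 by linear regression on a log/linear plot.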
# [3] = Tolerability in Balb/c mice, plasma chemistry markers (Example 10); type: in vivo; conditions: male Balb/c mice, 50 mg/kg subcutaneously twice a week for four weeks, day 26
# Procedure: as §1
# as §2, with “4-6” for “6-7”
# [4] = Tolerability in CD-1 mice, body and organ weights (Example 15); type: in vivo; conditions: male CD-1 mice, 50 mg/kg s.c. twice a week for four weeks (8 treatments), end of study (day 26)
# Procedure: Groups of four male CD-1 mice at 4-5 weeks of age (obtained from Charles River) were injected subcutaneously twice a week for four weeks (for a total of 8 treatments) with 50 mg/kg of modified oligonucleotides. One group of male CD-1 mice was injected with PBS. Mice were euthanized on day 26 post start of treatment (24 hrs following the final administration).
# Body weights of CD-1 mice were measured at the end of the study, and the average body weight for each group is presented in the table below. Modified oligonucleotides that caused any changes in organ weights outside the expected range for modified oligonucleotides were excluded from further studies.
# Yap1 mRNA [5] = assay: Antisense inhibition of human Yap1 in SNU-449 cells by modified oligonucleotides, single dose (Example 5, RTS36584); type: cell-based
# In short: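 Values are Yap1 mRNA as percent of untreated control cells, measured by quantitative real-time RT-PCR using RTS36584 and normalised to total RNA by RIBOGREEN. Cells were SNU-449, dosed by free uptake at 2,000 nM for approximately 48 hours.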
substance,measurement,setting,value
"958499 (ATTAGAGTATGTGGCA; 3-10-3 cEt gapmer, further chemistry not given here) [compound 958499]",ALT,[1],142 U/L
same,AST,[1],146 U/L
same,BUN,[1],26 mg/dL
same,TBIL,[1],0.17 mg/dL
715487 (kA*kT*kT*dA*d[5mC]*dT*dT*d[5mC]*dA*dT*dA*dG*d[5mC]*kT*kT*kA) [compound 715487],IC50,"Yap1 mRNA [2]; Yap1 mRNA, linear regression on a log/linear plot",1000 nM
same,% UTC 148 nM,"Yap1 mRNA [2]; free uptake, 148 nM, approximately 48 hours, RTS4814",87 % UTC
same,% UTC 444 nM,"Yap1 mRNA [2]; free uptake, 444 nM, approximately 48 hours, RTS4814",56 % UTC
same,% UTC 1333 nM,"Yap1 mRNA [2]; free uptake, 1333 nM, approximately 48 hours, RTS4814",48 % UTC
same,% UTC 4000 nM,"Yap1 mRNA [2]; free uptake, 4000 nM, approximately 48 hours, RTS4814",29 % UTC
same,ALT (U/L),[3],79 U/L
same,AST (U/L),[3],96 U/L
same,TBIL,[3],0.13 mg/dL
same,Kidney weight,[4],0.59 g
same,Liver weight,[4],2.24 g
same,Spleen weight,[4],0.21 g
same,body weight,[4],41 g
958499 (kA*kT*kT*dA*dG*dA*dG*dT*dA*dT*dG*dT*dG*kG*k[5mC]*kA) [Compound 958499],YAP1 (% UTC),"Yap1 mRNA [5]; Table 39, SNU-449 cells, 10,000 cells per well, free uptake, 2,000 nM oligonucleotide, approx. 48 hours, RTS36584, normalized to RIBOGREEN, Yap1 mRNA relative to untreated control",8 % UTC
same,YAP1 (% UTC),"Yap1 mRNA [5]; Table 40 (separate experiment), SNU-449 cells, 10,000 cells per well, free uptake, 2,000 nM oligonucleotide, approx. 48 hours, RTS36584, normalized to RIBOGREEN, Yap1 mRNA relative to untreated control",15 % UTC
same,YAP1 (% UTC),"Yap1 mRNA [5]; Table 41, SNU-449 cells, 10,000 cells per well, free uptake, 2,000 nM modified oligonucleotide, approximately 48 hours, RTS36584, normalized to RIBOGREEN, Yap1 mRNA relative to untreated control cells",14 % UTC
same,YAP1 (% UTC),"Yap1 mRNA [5]; Table 42 (separate experiment), SNU-449 cells, 10,000 cells per well, free uptake, 2,000 nM modified oligonucleotide, approximately 48 hours, RTS36584, normalized to RIBOGREEN, Yap1 mRNA relative to untreated control cells",15 % UTC
same,YAP1 (% UTC),"Yap1 mRNA [5]; Table 43 experiment, SNU-449 cells, 10,000 cells per well, free uptake, 2,000 nM, approximately 48 hours, RTS36584, Yap1 mRNA normalized to RIBOGREEN, relative to untreated control cells",14 % UTC
same,YAP1 (% UTC),"Yap1 mRNA [5]; Table 44 experiment, SNU-449 cells, 10,000 cells per well, free uptake, 2,000 nM, approximately 48 hours, RTS36584, Yap1 mRNA normalized to RIBOGREEN, relative to untreated control cells",9 % UTC
same,YAP1 (% UTC),"Yap1 mRNA [5]; Table 45, Yap1 mRNA as percent of untreated control, SNU-449 cells, single dose",15 % UTC
same,YAP1 (% UT),"Yap1 mRNA [5]; Table 46, Yap1 mRNA as percent of untreated control, SNU-449 cells, single dose",16 % UT
same,YAP1 (% UT),"Yap1 mRNA [5]; Table 48, Yap1 mRNA level relative to untreated control, modified oligonucleotides targeting SEQ ID NO.: 1 and 2",15 % UT
same,YAP1 (% UT),"Yap1 mRNA [5]; Table 49, Yap1 mRNA level relative to untreated control, modified oligonucleotides targeting SEQ ID NO.: 1 and 2",13 % UT
same,YAP1 (% UT),"Yap1 mRNA [5]; Table 50, Yap1 mRNA remaining as percent of untreated control (UT), SNU-449 cells, single dose",12 % UT
same,YAP1 (% UT),"Yap1 mRNA [5]; Table 51, Yap1 mRNA remaining as percent of untreated control (UT), SNU-449 cells, single dose",9 % UT
same,YAP1 (% UT),"Yap1 mRNA [5]; Table 52, Yap1 mRNA, modified oligonucleotides targeting SEQ ID NO: 1 and 2",14 % UT
same,YAP1 (% UT),"Yap1 mRNA [5]; Yap1 mRNA, percent of untreated control, modified oligonucleotides targeting SEQ ID NO: 1 and 2, Table 47",17 % UT and 10 % UT
